Experiments:
[1] = tested on: T47D cells; experiment: live-cell confocal microscopy of β-lactamase internalization; format: cell-based, human; details: 4 µM conjugate with SpyC_BLA or unconjugated SpyC_BLA, 2 h, CCF2-AM 1 h, Figure 2g–n
Experimental: (§1) Figure 2 Live-cell confocal microscopy visualizes CPP-mediated β-lactamase internalization. The CPP-mediated uptake of CPP_SpyT/SpyC_BLA conjugates (4 µM) was visualized in CHO-K1 cells (a–f) and T47D cells (g–n). SpyC_BLA was conjugated to CPP_SpyT peptides. […] The degree of uptake is CPP-dependent and visualized by blue fluorescing cells. Bar scale is 50 µm (a–j) or 14.6 µm (k–n).
(§2) Cells were seeded (CHO-K1, 37,500 cells/mL; T47D 37,500 cells/mL) onto 4-well ibiTreat chamber slides (Thermo Fisher Scientific) and incubated for 48 h at 37 °C, 5% CO2. The medium was removed and replaced with medium containing SpyC_BLA/CPP_SpyT conjugated or unconjugated SpyC_BLA proteins and cells were incubated for 2 h at 37 °C, 5% CO2. After incubation, the cells were washed to remove any SpyC_BLA protein that had not internalized, loaded with substrate CCF2-AM (2 µM final concentration in media containing 1% FCS), and incubated for 1 h at room temperature. Live cells were visualized through confocal microscopy. Images were collected using a Nikon C2 Confocal Microscope through a 40× differential interference contrast (DIC) objective after excitation by a 408 nm laser. Bar scales in images represent 50 µm or 14.6 µm (zoom magnification 3.4×).

[2] = tested on: CHO-K1 cells; experiment: as above; format: cell-based, Chinese hamster; details: 4 µM conjugate with SpyC_BLA or unconjugated SpyC_BLA, 2 h, CCF2-AM 2 µM 1 h, Figure 2a–f
Experimental: as §1, §2

[3] = tested on: CHO-K1 cells; experiment: cell fractionation and anti-β-lactamase immunoblotting; format: cell-based, Chinese hamster; details: 8 µM, 1.5 h at 37 °C, digitonin cytosol extraction, 4 µg aliquots, anti-β-lactamase antibody, Figure S1
Experimental: Supplementary Information
Supplementary Figures: β-Lactamase Tools for Establishing Cell Internalization and Cytosolic
Delivery of Cell Penetrating Peptides
Figure S1. Verification of cell penetrating peptides (CPP)-mediated β-lactamase internalization by immunoblotting. MW: molecular weight.
Aliquots (4 µg) of cytosolic and membrane soluble CHO-K1 cell fractions from β-lactamase assays were separated by sodium dodecyl sulfate–polyacrylamide gel electrophoresis (SDS-PAGE) through a 4-12% (w/v) polyacrylamide Bis-Tris gel, transferred to polyvinylidene difluoride (PVDF) membrane, and immunoblotted. β-lactamase conjugated (e.g., 1746_SpyT/SpyC_BLA) or fused (e.g., 1746_BLA recombinant) to 1746c27 and 1746 Phylomer cell penetrating peptides (CPPs) was detected in the cytosolic fraction to varying extents, while TAT-conjugated β-lactamase was predominantly detected in the membrane fraction of cell lysates. […]
delivered into the cytosol by the 1746 CPP. Internalization of unconjugated SpyC_BLA protein was not detected, either on its own (SpyC_BLA (no CPP)) or in the presence of 1746c27 peptide (1746c27, SpyC_BLA), illustrating there is no bystander uptake effect. […]
Aliquots of extracted fractions (4 µg) were separated through a 4–12% Bis-Tris gel (Invitrogen, Carlsbad, CA, USA). Protein expression in the fractions was detected using monoclonal anti-β- […]

[4] = tested on: CHO-K1 cells; experiment: β-lactamase internalization assay (CCF2-AM, flow cytometry); format: cell-based, Chinese hamster
Experimental: The β-lactamase internalization assay is based on the simple principle that CPP-dependent intracellular delivery of recombinant β-lactamase protein can be detected by cleavage of the CCF2 substrate in the cytosol (Figure 1a). In brief, CPP sequences and the β-lactamase cargo protein can be brought together by conjugation or can be recombinantly expressed as a CPP_β-lactamase (CPP_BLA) fusion (Figure 1a, step i). The CPP_BLA protein fusions or conjugates are incubated on cells, which are then washed to remove excess protein that has not internalized (Figure 1a, step ii). The cells are incubated further (i.e., loaded) with the CCF2-AM cell-permeable dye for 1 h (Figure 1a, step iii). […] This reaction is measured as a shift in fluorescent signal from green to blue. […]
(§3) To validate the assay, we first used a conjugation approach based on the SpyTag (SpyT) peptide/SpyCatcher (SpyC) protein ligation technology. […] Protein conjugates were incubated on CHO-K1 or T47D cells, measuring the fluorescence shift as percentage of blue fluorescent CHO-K1 or T47D cells after 1 h (Figure 1b,c, respectively). […]
The two phylomer CPPs with the strongest β-lactamase internalization signal and the canonical CPP TAT (positive control) were expressed as direct fusions with β-lactamase (CPP_BLA proteins; sequences in Table A2). […]

[5] = tested on: T47D cells; experiment: as above; format: cell-based, human; details: CPP_SpyT/SpyC_BLA conjugates or unconjugated SpyC_BLA, 1 h at 37 °C, CCF2-AM 1 µM, Figure 1c, No CPP control n = 3
Experimental: The β-lactamase internalization assay is based on the simple principle that CPP-dependent intracellular delivery of recombinant β-lactamase protein can be detected by cleavage of the CCF2 substrate in the cytosol (Figure 1a). In brief, CPP sequences and the β-lactamase cargo protein can be brought together by conjugation or can be recombinantly expressed as a CPP_β-lactamase (CPP_BLA) fusion (Figure 1a, step i). The CPP_BLA protein fusions or conjugates are incubated on cells, which are then washed to remove excess protein that has not internalized (Figure 1a, step ii). The cells are incubated further (i.e., loaded) with the CCF2-AM cell-permeable dye for 1 h (Figure 1a, step iii). Once inside the cell, CCF2-AM is converted by endogenous cytoplasmic esterases to CCF2, which is retained in the cytosol. In cells where β-lactamase has internalized through CPP activity, CCF2 is cleaved by β-lactamase (Figure 1a, step iv). This reaction is measured as a shift in fluorescent signal from green to blue. […]
as §3

| Substance | uptake of SpyC_BLA visualized by blue fluorescing cells [1] | uptake of SpyC_BLA visualized by blue fluorescing cells [2] | β-lactamase detected in cytosolic and membrane cell fractions (immunoblot) [3] | internalization of CPP-conjugated SpyC_BLA (percentage of blue viable cells) ([4]; CPP_SpyT/SpyC_BLA conjugates or unconjugated SpyC_BLA, 0.5–4 µM, 1 h at 37 °C, CCF2-AM 2 µM, Figure 1b, No CPP control n = 7) | internalization of recombinantly expressed CPP_β-lactamase fusion protein (percentage of blue viable cells) ([4]; recombinant CPP_BLA fusion proteins, SpyC_BLA as negative control, Figure 1d) | internalization of CPP-conjugated SpyC_BLA (percentage of blue viable cells) [5] |
| --- | --- | --- | --- | --- | --- | --- |
| GRKKRRQRRRGASAHIVMVDAYKPTKG [TAT_SpyT, reference compound] | enabled CPP-dependent uptake of SpyC_BLA | enabled CPP-dependent uptake of SpyC_BLA | – | – | – | – |
| KKKKQPPKPKKPKTQEKKKKQPPKPKRGASAHIVMVDAYKPTKG [1746c27_SpyT, phylomer CPP 1746c27 synthesized as SpyTag fusion] | enabled CPP-dependent uptake of SpyC_BLA | enabled CPP-dependent uptake of SpyC_BLA | – | – | – | – |
| PLKPKKPKTQEKKKKQPPKPKKPKTQEKKKKQPPKPKRGASAHIVMVDAYKPTKG [1746_SpyT, phylomer CPP 1746 synthesized as SpyTag fusion] | enabled CPP-dependent uptake of SpyC_BLA | enabled CPP-dependent uptake of SpyC_BLA | – | – | – | – |
| PLTQRTLQRGKKPKQRQNWKKARTSSAKTAPKTVVSRTTSQRKGASAHIVMVDAYKPTKG [0169_SpyT, phylomer CPP 0169 synthesized as SpyTag fusion] | – | enabled CPP-dependent uptake of SpyC_BLA | – | – | – | – |
| RKQKSLQTKLAENPPVPRKKRQSRPRWKQWLQKGASAHIVMVDAYKPTKG [0084_SpyT, phylomer CPP 0084 synthesized as SpyTag fusion] | – | enabled CPP-dependent uptake of SpyC_BLA | – | – | – | – |
| SpyC_BLA: recombinantly expressed SpyCatcher_β-lactamase protein; unconjugated it is the 'No CPP' negative control | minimal evidence of internalization | minimal evidence of internalization | not detected | does not internalize | does not internalize | does not internalize |

Reference: paper PMC6163455 (Biomolecules, 2018)
